Assay results published in the NIST ThermoML archive (doi:10.1021/je400679k).

Assay: xn = mol fraction of the nth substance listed
Conditions: 101 kPa, Liquid, Vibrating tube method

CNCCCN [N-methyl-1,3-diaminopropane] + CN(C)CCO
mass density [kg/m3]
Conditions | x1 = 0.0998 | x1 = 0.2 | x1 = 0.3001 | x1 = 0.4 | x1 = 0.4997 | x1 = 0.5993 | x1 = 0.6999 | x1 = 0.799 | x1 = 0.9 | x1 = 1
283.15 K | 893.869 | 892.03 | 889.578 | 886.723 | 883.31 | 879.367 | 875.276 | 871.091 | 866.659 | 860.459
293.15 K | 885.469 | 883.599 | 881.113 | 878.225 | 874.783 | 870.8 | 866.663 | 862.415 | 857.904 | 851.605
303.15 K | 876.968 | 875.071 | 872.551 | 869.634 | 866.166 | 862.148 | 857.97 | 853.666 | 849.087 | 842.69
313.15 K | 868.337 | 866.42 | 863.872 | 860.932 | 857.442 | 853.398 | 849.183 | 844.832 | 840.193 | 833.715
323.15 K | 859.574 | 857.639 | 855.069 | 852.112 | 848.606 | 844.543 | 840.3 | 835.912 | 831.218 | 824.673
333.15 K | 850.654 | 848.712 | 846.131 | 843.164 | 839.647 | 835.571 | 831.314 | 826.896 | 822.163 | 815.559
343.15 K | 841.562 | 839.622 | 837.042 | 834.073 | 830.555 | 826.477 | 822.212 | 817.78 | 813.022 | 806.37
353.15 K | 832.286 | 830.357 | 827.791 | 824.83 | 821.322 | 817.252 | 812.995 | 808.563 | 803.789 | 797.093
363.15 K | 822.801 | 820.903 | 818.354 | 815.413 | 811.93 | 807.876 | 803.636 | 799.198 | 794.432 | 787.723
